Measurements as given in PubChem BioAssay (NCI).
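Growth conditions: 96-well plates. Treatment: test compound, 48 hours, 5 concentrations. Analysis: linear interpolation between bracketing concentrations; unreached endpoints set to highest concentration. TGI is the concentration that stops growth completely.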

Key:
Experiment in all cases: NCI tumour cell line growth inhibition, 48 h
SNB-75 CNS = system: SNB-75 CNS
SN12C renal = system: SN12C renal
HOP-62 NSCLC = system: HOP-62 NSCLC
SF-295 CNS = system: SF-295 CNS
LOX IMVI melanoma = system: LOX IMVI melanoma
CAKI-1 renal = system: CAKI-1 renal
OVCAR-4 ovarian = system: OVCAR-4 ovarian
SK-MEL-2 melanoma = system: SK-MEL-2 melanoma
EKVX NSCLC = system: EKVX NSCLC
NCI-H460 lung = system: NCI-H460 lung
BT-549 breast = system: BT-549 breast
CCRF-CEM leukemia = system: CCRF-CEM leukemia
MDA-MB-435 = system: MDA-MB-435
UO-31 renal = system: UO-31 renal
KM12 colon = system: KM12 colon
NCI-H23 lung = system: NCI-H23 lung
RPMI-8226 leukemia = system: RPMI-8226 leukemia
HCT-116 colon = system: HCT-116 colon
RXF 393 renal = system: RXF 393 renal
A549 NSCLC = system: A549 NSCLC

Row | SMILES | TGI (SNB-75 CNS) | TGI (SN12C renal) | TGI (HOP-62 NSCLC) | TGI (SF-295 CNS) | TGI (LOX IMVI melanoma) | TGI (CAKI-1 renal) | TGI (OVCAR-4 ovarian) | TGI (SK-MEL-2 melanoma) | TGI (EKVX NSCLC) | TGI (NCI-H460 lung) | TGI (BT-549 breast) | TGI (CCRF-CEM leukemia) | TGI (MDA-MB-435) | TGI (UO-31 renal) | TGI (KM12 colon) | TGI (NCI-H23 lung) | TGI (RPMI-8226 leukemia) | TGI (HCT-116 colon) | TGI (RXF 393 renal) | TGI (A549 NSCLC)
1 | COc1cccc2c1CCc1cc3c(N)nc(N)nc3nc1-2 | 34.9 µM | 28.1 µM | 20.1 µM | 9.91 µM | 3.34 µM | 45.7 µM | 32.5 µM | 33.9 µM | 15.3 µM | 25 µM | 52.1 µM | 7.02 µM | 27.4 µM | 9.7 µM | 37.5 µM | 18.2 µM | > 100 µM | 8.09 µM | 26.4 µM | 7.69 µM
2 | Clc1nssc1=Nc1nonc1-c1ccccc1 | 64.2 µM | 42.4 µM | > 100 µM | > 100 µM | > 100 µM | 34.6 µM | > 100 µM | > 100 µM | > 100 µM | > 100 µM | 89.8 µM | 90.8 µM | > 100 µM | 36.3 µM | 96 µM | 76.6 µM | 63.3 µM | > 100 µM | 59.6 µM | > 100 µM
3 | CCn1c(SCC(=O)N/N=C/c2ccccc2)nc2ccccc2c1=O | 54.5 µM | > 100 µM | > 78.3 µM | 33.1 µM | > 100 µM | 22.4 µM | 72.8 µM | > 46.4 µM | > 100 µM | 9.63 µM | > 100 µM | > 100 µM | 17.6 µM | > 100 µM | > 68.8 µM | > 100 µM | > 100 µM | > 100 µM | 27.2 µM | > 46.4 µM
4 | Cc1cccc2c1C(=O)[C@](C)([C@]1(C)Nc3cccc(C)c3C1=O)N2 | 41.2 µM | > 100 µM | 84.9 µM | 68.9 µM | > 100 µM | 69.2 µM | > 100 µM | 69.2 µM | 71.7 µM | > 100 µM | 62.5 µM | 48.3 µM | 35.7 µM | 51.8 µM | > 100 µM | 77.4 µM | 53.7 µM | > 100 µM | > 100 µM | > 100 µM
5 | CCCC[C@H]1[C@@H](OCOc2ccccc2)COC(=O)N1[C@H](C)c1ccccc1 | 26.9 µM | 21.9 µM | 29.8 µM | 50.6 µM | 70.7 µM | 30.5 µM | 43.9 µM | 33.3 µM | 85.2 µM | 32.1 µM | 44.4 µM | 68.8 µM | 38.5 µM | > 45.1 µM | 33.5 µM | > 58.2 µM | 60.1 µM | 20.8 µM | 47.6 µM | 28.4 µM
6 | COc1ccc(N2C(=O)[C@H]3[C@H]4CC(C(C)(C)C)CC[C@H]4c4c(n(C)c5ccccc45)[C@H]3C2=O)cc1 (stereo not given in full) | > 100 µM | > 56.2 µM | > 5.62 µM | > 100 µM | > 100 µM | > 100 µM | > 100 µM | > 100 µM | > 46.4 µM | > 63.8 µM | > 100 µM | > 100 µM | > 100 µM | > 100 µM | > 61.3 µM | > 100 µM | > 100 µM | > 100 µM | > 100 µM | > 100 µM
7 | CCCCN1CN2C(=O)C(C(=O)OCC)C(=O)c3sc4nc(SC)nc1c4c32 (stereo not given) | 35.7 µM | 34.1 µM | 30.5 µM | 30.8 µM | 38.1 µM | 32.9 µM | 33.4 µM | 36.6 µM | 32.2 µM | 40.2 µM | 30.6 µM | 83.9 µM | 34 µM | 37.4 µM | 36 µM | 33.6 µM | 42.7 µM | 30.6 µM | 38.5 µM | 39.9 µM
8 | Cn1c(=O)n2n(c1=O)C(S(=O)(=O)c1ccccc1)C2 (stereo not given) | > 100 µM | > 100 µM | > 100 µM | > 100 µM | > 100 µM | > 100 µM | > 100 µM | > 100 µM | > 100 µM | > 100 µM | > 100 µM | > 100 µM | > 100 µM | > 100 µM | > 100 µM | > 100 µM | > 100 µM | > 100 µM | > 100 µM | > 100 µM
9 | Cc1cc(C)nc(NS(=O)(=O)c2ccc(NNc3c4ccccc4nc4c(C(=O)Nc5ccc(S(N)(=O)=O)cc5)cccc34)cc2)n1 | 33 µM | > 100 µM | > 100 µM | > 100 µM | > 100 µM | > 100 µM | > 100 µM | 46.7 µM | > 100 µM | > 100 µM | > 100 µM | 83.6 µM | > 100 µM | > 100 µM | > 100 µM | > 100 µM | > 100 µM | > 100 µM | > 100 µM | > 100 µM
10 | O=[N+]([O-])c1ccc(N=Nc2c(O)ccc3ccccc23)c([N+](=O)[O-])c1 | > 100 µM | > 100 µM | > 100 µM | > 100 µM | > 100 µM | > 100 µM | > 100 µM | > 100 µM | > 100 µM | > 100 µM | > 100 µM | > 64.6 µM | > 100 µM | > 100 µM | > 100 µM | > 100 µM | > 100 µM | > 100 µM | > 100 µM | > 100 µM
11 | CC[C@@H]1C(=O)OC[C@@H]1Cc1cncn1C | > 100 µM | > 100 µM | > 100 µM | > 100 µM | > 100 µM | > 100 µM | > 100 µM | > 100 µM | > 100 µM | > 100 µM | > 100 µM | > 100 µM | > 100 µM | > 100 µM | > 100 µM | > 100 µM | > 100 µM | > 100 µM | > 100 µM | > 100 µM
12 | CC1(C)CCc2c(c(N=Nc3ccc(S(N)(=O)=O)cc3)c3ccccc3c2O)O1 | 16.6 µM | 23.2 µM | 20.7 µM | 24 µM | 21.3 µM | 62.1 µM | 26 µM | 83.8 µM | 57.1 µM | 24.3 µM | 29.1 µM | 24.3 µM | 22.5 µM | 40.4 µM | 66.4 µM | 24.5 µM | > 100 µM | 34.7 µM | 24.6 µM | 30.2 µM
13 | N#Cc1c(=O)c2ccccc2n2c1[nH]c1ccccc12 | > 100 µM | > 100 µM | > 100 µM | > 100 µM | > 100 µM | > 100 µM | > 100 µM | > 100 µM | > 100 µM | > 100 µM | > 100 µM | 79.6 µM | > 100 µM | > 100 µM | > 100 µM | > 100 µM | > 100 µM | > 100 µM | > 100 µM | > 100 µM
14 | COc1ccc(-c2c3c(cc4cc5c(cc24)OCO5)C(=O)OC3)cc1OC | 44.7 µM | > 53.1 µM | 7.16 µM | 0.922 µM | 0.0663 µM | > 63.4 µM | > 100 µM | 4.91 µM | > 75.6 µM | 15.9 µM | 22.3 µM | > 52.1 µM | 11.5 µM | 14.1 µM | > 36 µM | 26.5 µM | 9.98 µM | 12.1 µM | 35.8 µM | > 100 µM
15 | COC(=O)C1=CSC2(S1)C(C(=O)OC)=CSc1c2ssc1=O (stereo not given) | 8.16 µM | 5.1 µM | 17 µM | 40.5 µM | 3.35 µM | 10.7 µM | 3.81 µM | 5.92 µM | 14.5 µM | 24.5 µM | 12.9 µM | 2.47 µM | 4.34 µM | 3.25 µM | 12.8 µM | 5.12 µM | 4.24 µM | 3.16 µM | 3.62 µM | 28.3 µM
